Source: patent US11066629B2, “Lipid metabolism-promoting composition including isoxanthohumol” (SUNTORY HOLDINGS LIMITED, priority 2016, dated 2021)
Each block holds one molecule with its values, some of them ahead of it.

Key:
[1] = system: apoptosis inhibitor of macrophage (AIM); conditions: mouse macrophage-derived cells (J774.1) cultured with isoxanthohumol; cited from earlier work
[2] = Solubility in water under ice cooling conditions (Experiment A); format: physicochemical; conditions: distilled water, ppm on w/v basis
Source text: (§1) The solubility of each of the standard samples of xanthohumol and isoxanthohumol in water (Experiment A) and various solvents (Experiment B) under ice cooling conditions was studied to evaluate the suitability for beverage applications. Xanthohumol and isoxanthohumol were the standard samples obtained in Preparation Example 1 (purity of 95% or higher).
A sample containing distilled water and xanthohumol or isoxanthohumol having a weight corresponding to 0.2% (w/v) of the distilled water was prepared, and each standard sample was allowed to dissolve in distilled water as much as possible by stirring in a vortex mixer for 10 seconds or longer and shaking for about 60 minutes under ice cooling conditions. Further, centrifugation was performed (12,000 rpm, 4° C., for 5 minutes), and the supernatant was collected. This procedure was repeated three times. The finally obtained supernatant was used as a xanthohumol saturated aqueous solution or an isoxanthohumol saturated aqueous solution. The saturated aqueous solution was 100-fold diluted with a 25% aqueous ethanol solution to obtain a sample for analysis. The sample was subjected to quantitative analysis using an LC-MS/MS system (TSQ Quantiva, Thermo Fisher Scientific Inc.) to evaluate the solubility in water. […] Note that ppm is ppm on w/v basis unless otherwise specified. […]

[3] = heating; isoxanthohumol at 100° C.; cited from earlier work
[4] = system: high-fat diet model; assay: Measurement of triglyceride (TG) content in liver; format: in vivo, Mice (C57BL/6J); conditions: livers of Example 1
Protocol: The neutral fat content (also referred to as “triglyceride content” or “TG content”) in the liver was measured using the liver extracted in Example 1. Specifically, the extracted liver was cut to obtain a section of about 30 mg, and 1 mL of a mixed solution containing methanol (Nacalai Tesque, Inc.) and chloroform (Nacalai Tesque, Inc.) at a ratio of 1:1 was added to the section which was then crushed with a bead beater, whereby triglyceride in the liver was extracted. After centrifugation (12000 g, for 15 minutes), the supernatant was collected, the solution was distilled off, and isopropanol was added for re-dissolution, whereby a sample was prepared. The triglyceride content in the sample was measured using Triglyceride E Test Wako (Wako), and the triglyceride content (mg/g) in the liver per unit weight was calculated. The data was presented as average f standard error. Student's t-test was used as a statistical test, and a difference with p<0.05 was considered significant.

[5] = Effect of intake on fat burning, respiratory quotient (Oxymax respirometer); format: in vivo, mice (C57BL/6J); conditions: isoxanthohumol 0.2% in feed, 7 days, vs control group
Source text: The effect of isoxanthohumol intake on fat burning was studied by the following procedure using a respirometer “Oxymax” (Bio Research Center Co., Ltd.).
As for the group structure, there were two groups: a control group and an isoxanthohumol 0.2% group. Eight mice (C57BL/6J, male, 14 weeks of age, CLFA Japan, Inc.) were purchased and acclimatized for about one week. Then, the mice were divided into the control group and the isoxanthohumol 0.2% group (n=4 in each group) by the stratified continuous randomization method based on body weight. Control diet “D12450J” (Research Diets) was used as basic feed. During the test period, the control group was fed with the basic feed, and the isoxanthohumol 0.2% group was fed with mixed feed of the basic feed and the test substance (isoxanthohumol obtained in Preparation Example 1) at a weight ratio of 0.2% relative to the basic feed.
The test period (a period in which the test substance was ingested, and breath analysis was performed) was seven days. […] Using Oxymax (Bio Research Center Co., Ltd.), the oxygen consumption (VO2) and the carbon dioxide output (VCO2) of each individual were measured over time and recorded.
The respiratory quotient (RQ) was calculated using the following formula 1 from the oxygen consumption (VO2) and the carbon dioxide output (VCO2) at each point. […]

[6] = Solubility of isoxanthohumol in various solvents under ice cooling conditions (Experiment B); format: physicochemical; conditions: for solubility relative to aqueous solution without γ-cyclodextrin: ice cooling
Source text: as §1
Distilled water, a hop extract, and 0.2% (w/v) or 1.0% (w/v) aqueous solution of β-cyclodextrin or γ-cyclodextrin (both Nacalai Tesque, Inc.) were prepared as solvents to study the solubility of isoxanthohumol under ice cooling conditions. As for the hop extract, hops (Saaz) that had been crushed into pellets were extracted with distilled water in an amount 10 times the weight of the pellets by shaking at room temperature for about 60 minutes, and the filtrate obtained by suction filtration was used for the test. The isoxanthohumol concentration in the hop extract was less than 0.5 ppm. A sample containing a solvent and isoxanthohumol having a weight corresponding to 0.2% (w/v) of the solvent was prepared for each of the above solvents, and the standard sample was allowed to dissolve in water as much as possible by stirring in a vortex mixer for 10 seconds or longer and shaking for about 60 minutes under ice cooling conditions. Centrifugation and quantitative analysis were performed as in Experiment A to evaluate the solubility of isoxanthohumol in each solvent.

[7] = system: mouse preadipocyte (3T3-L1); conditions: 3T3-L1, concentration without cytotoxicity; cited from earlier work
[8] = system: Cpt1a gene; assay: Gene expression in liver by quantitative PCR, high-fat diet model; format: in vivo, mice (C57BL/6J); conditions: isoxanthohumol 30 or 60 mg/kg/day oral, 14 days
Source text: (§2) Using the high-fat diet model, the effect of isoxanthohumol intake on expression of a gene related to fat burning was studied by the following procedure.
(§3) Thirty-two mice (C57BL/6J, male, 8 weeks of age, CLEA Japan, Inc.) were purchased and acclimatized for about one week. Then, the mice were divided into groups (n=8 in each group) in the group structure shown in Table 2 by the stratified continuous randomization method based on body weight. […] In Table 2, “Regular diet” is control diet “D12450J” (Research Diets), and “60 kcal % High-fat diet” is very high-fat diet “D12492” (Research Diets). Isoxanthohumol as the test substance was the standard sample (purity of 95% or higher) obtained in Preparation Example 1. […]
(§4) The test period was 14 days. […] The amount of the test substance and the volume of the solution were calculated based on the latest body weight on the administration date. […]
(§5) Using the extracted liver and brown adipose tissue, the effect of isoxanthohumol intake on expression of multiple genes related to lipid metabolism was studied. […] Then, cDNAs were synthesized using High-Capacity cDNA Reverse Transcription Kit (product name, Life Technologies Corporation), and the expression levels of genes shown in Table 3 were examined by quantitative PCR (TaqMan probe method) using Fast Universal PCR Master Mix (product name, Life Technologies Corporation). […]

[9] = system: Acox1 gene; assay: as above; format: in vivo, mice (C57BL/6J); conditions: isoxanthohumol 30 or 60 mg/kg/day oral, 14 days
Source text: as §2, §3, §4, §5

[10] = system: Ucp1 gene; assay: Gene expression in brown adipose tissue by quantitative PCR, high-fat diet model; format: in vivo, mice (C57BL/6J); conditions: isoxanthohumol 30 or 60 mg/kg/day oral, 14 days
Source text: as §2, §3, §4, §5

[11] = system: Pgc-1α gene; assay: as above; format: in vivo, mice (C57BL/6J); conditions: isoxanthohumol 30 or 60 mg/kg/day oral, 14 days
Source text: as §2, §3, §4, §5

[12] = system: high-fat diet model; assay: Anti-obesity action in high-fat diet model (body weight, fat weight); format: in vivo, Mice (C57BL/6J)
Source text: The effect of isoxanthohumol on body weight increase and fat accumulation associated with high-fat diet was studied by the following procedure. In the table, “Regular diet” is control diet “D12450J” (product name, Research Diets); “60 kcal % High-fat diet” is very high-fat diet “D12492” (product name, Research Diets); and “Catechins” is a preparation “Polyphenon 70A” (product name, Mitsui Norin Co., Ltd.). Xanthohumol and isoxanthohumol were the standard samples (purity of 95% or higher) obtained in Preparation Example 1. The “Dose” in the table indicates the dose (mg) of the test substance per day per kg body weight. The main evaluation items were the body weight and the fat weight (fat around epididymis, fat around kidney/posterior abdominal wall, and fat around mesentery) of each individual (each item was measured on the last day: day 55 of administration). Mice (C57BL/6J, male, 7 weeks of age, CLEA Japan, Inc.) were purchased, and they were quarantine and acclimatized for one week. […] The selected animals were divided into groups (n=8 in each group) in the group structure shown in Table 1 by the stratified continuous randomization method based on body weight at the end of the acclimatization period. They were fed with free access to specific basic feed and water. The test substance was orally administered once per day for eight weeks. The test substance was administered until day 55, with the dosing start date defined as day 0. The duration was regarded as an administration period. During the administration period, the feed was completely replaced with a frequency of twice a week. The volume of a dosing solution was 10 mL/kg, and the amount of the test substance and the volume of the solution were calculated based on the latest body weight on the administration date. After the administration period, adipose tissue (fat around epididymis, fat around kidney/posterior abdominal wall, fat around mesentery) was extracted, and the weight was measured. Statistical analysis was performed as follows. Specifically, the average and standard error were calculated for body weight and fat weight in each group. Statistical processing was performed using Microsoft Office Excel 2003, and significant difference was tested between the regular diet group and the high-fat diet group and between the high-fat diet group and the groups excluding the regular diet group. As a statistical method, the homogeneity of variance was tested using the F-test. Student's T-test was used for homoscedasticity, and Aspin-Welch t-test was used for heteroscedasticity.

[13] = system: type II diabetes mouse model; conditions: feed containing xanthohumol at 1%; cited from earlier work
[14] = system: high-fat diet mouse model; conditions: repeated dose 30 mg/kg/day; cited from earlier work
[15] = 60 mg/kg/day oral, day 55, compared to high-fat diet group
[16] = 180 mg/kg/day oral, day 55, compared to high-fat diet group

Solubility in water (ice cooling conditions) [2]: 6.3 ppm
solubility relative to aqueous solution without γ-cyclodextrin ([6]; 0.2% (w/v) γ-cyclodextrin): about 5 times
solubility relative to aqueous solution without γ-cyclodextrin ([6]; 1.0% (w/v) γ-cyclodextrin): about 18 times
Solubility (ice cooling conditions) ([6]; solvent: 0.2% β-Cyclodextrin): 18.4 ppm
Solubility (ice cooling conditions) ([6]; solvent: 0.2% γ-Cyclodextrin): 33.6 ppm
Solubility (ice cooling conditions) ([6]; solvent: 1.0% β-Cyclodextrin): 52.0 ppm
Solubility (ice cooling conditions) ([6]; solvent: 1.0% γ-Cyclodextrin): 115.5 ppm
Solubility (ice cooling conditions) ([6]; solvent: Distilled water): 6.3 ppm
Solubility (ice cooling conditions) ([6]; solvent: Hop extract): 13.7 ppm
SMILES: COc1cc(O)c(CC=C(C)C)c2c1C(=O)CC(c1ccc(O)cc1)O2 (stereo not drawn) [isoxanthohumol]
expression of lipolysis-promoting factor AIM [1]: enhanced expression
thermal stability [3]: stable even at a high temperature of 100 °C
neutral fat (triglyceride) content in the liver ([4]; isoxanthohumol-administered group vs high-fat diet group): significantly lower
action on neutral fat content in the liver compared with xanthohumol [4]: stronger than that of xanthohumol
respiratory quotient (RQ) [5]: lower
differentiation of the cells into adipocytes [7]: did not suppress differentiation
gene expression level of Cpt1a gene in the liver [8]: significant increase
gene expression level of Acox1 gene in the liver [9]: significant increase
expression level of Ucp1 gene in brown adipose tissue [10]: increase in expression level
Pgc-1α gene expression in the brown adipose tissue [11]: significant increase
fat weight around epididymis [12, 15]: significantly low
fat weight around mesentery [12, 15]: significantly low
fat weight around epididymis [12, 16]: significantly low
fat weight around kidney/posterior abdominal wall [12, 16]: significantly low
fat weight around mesentery [12, 16]: significantly low
average body weight compared with xanthohumol medium-dose group ([12]; isoxanthohumol 60 mg/kg vs xanthohumol 60 mg/kg, day 55): equivalent to that of the xanthohumol medium-dose group
average body weight compared with catechins group ([12]; isoxanthohumol 180 mg/kg vs catechins 300 mg/kg, day 55): better result
body weight ([12]; isoxanthohumol high-dose 180 mg/kg/day oral, day 55, compared to high-fat diet group): significantly low
body weight ([12]; isoxanthohumol medium-dose 60 mg/kg/day oral, day 55, compared to high-fat diet group): tended to have a low body weight

Solubility in water (ice cooling conditions) [2]: Less than 0.5 ppm
SMILES: COc1cc(O)c(CC=C(C)C)c(O)c1C(=O)/C=C/c1ccc(O)cc1 [xanthohumol]
thermal stability [3]: thermally unstable
body weight gain [13]: tendency of suppression of body weight gain
weight of fat around kidney or the like [13]: decrease
body weight increase [14]: suppression of body weight increase
